Measurements: ChEMBL document CHEMBL4373693, “Virtual Screening Approach and Investigation of Structure-Activity Relationships To Discover Novel Bacterial Topoisomerase Inhibitors Targeting Gram-Positive and Gram-Negative Pathogens” (J Med Chem, 2019)
≈ marks a conversion by molar mass, not a printed value.

How the values were obtained:
Type in all cases: functional
[1] = test system: Klebsiella pneumoniae; test: Antibacterial activity against quinolone-sensitive Klebsiella pneumoniae ATCC 700603 after 16 to 24 hrs by broth microdilution method
[2] = test system: Haemophilus influenzae; test: Antibacterial activity against quinolone-sensitive Haemophilus influenzae ATCC 49766 after 16 to 24 hrs by broth microdilution method
[3] = test system: Enterococcus faecalis; test: Antibacterial activity against vancomycin and teicoplanin-resistant Enterococcus faecalis APV 00408 after 16 to 24 hrs by broth microdilution method
[4] = test system: Staphylococcus aureus; test: Antibacterial activity against Staphylococcus aureus ATCC 29213 in presence of 50% human serum after 16 to 24 hrs by broth microdilution method
[5] = test system: Enterococcus faecium; test: Antibacterial activity against vancomycin resistant and teicoplanin sensitive Enterococcus faecium APV 00553 after 16 to 24 hrs by broth microdilution method
[6] = test system: Enterococcus faecium; test: Antibacterial activity against Enterococcus faecium APV 00627 after 16 to 24 hrs by broth microdilution method
[7] = test system: Enterococcus faecalis; test: Antibacterial activity against vancomycin-sensitive Enterococcus faecalis APV 00406 after 16 to 24 hrs by broth microdilution method
[8] = test system: Enterococcus faecalis; test: Antibacterial activity against vancomycin-sensitive Enterococcus faecalis APV 00404 after 16 to 24 hrs by broth microdilution method
[9] = test system: Enterococcus faecium; test: Antibacterial activity against Enterococcus faecium APV 00626 after 16 to 24 hrs by broth microdilution method
[10] = test system: Enterococcus faecalis; test: Antibacterial activity against vancomycin and teicoplanin-resistant Enterococcus faecalis APV 00409 after 16 to 24 hrs by broth microdilution method
[11] = test system: Enterococcus faecalis; test: Antibacterial activity against Enterococcus faecalis ATCC 29212 after 16 to 24 hrs by broth microdilution method
[12] = test system: Staphylococcus aureus; test: Antibacterial activity against Staphylococcus aureus BAA-1720 after 16 to 24 hrs by broth microdilution method
[13] = test system: Enterococcus faecium; test: Antibacterial activity against vancomycin and teicoplanin-resistant Enterococcus faecium APV 00424 after 16 to 24 hrs by broth microdilution method
[14] = test system: Enterococcus faecium; test: Antibacterial activity against vancomycin and teicoplanin-resistant Enterococcus faecium APV 00422 after 16 to 24 hrs by broth microdilution method
[15] = test system: Haemophilus influenzae; test: Antibacterial activity against quinolone-sensitive Haemophilus influenzae H128 after 16 to 24 hrs by broth microdilution method
[16] = test system: Neisseria gonorrhoeae; test: Antibacterial activity against Neisseria gonorrhoeae ATCC 19424 after 16 to 24 hrs by broth microdilution method
[17] = test system: Staphylococcus aureus; test: Antibacterial activity against Staphylococcus aureus ATCC 29213 after 16 to 24 hrs by broth microdilution method
[18] = test system: Staphylococcus aureus; test: Antibacterial activity against Staphylococcus aureus BAA-1720 in presence of 50% human serum after 16 to 24 hrs by broth microdilution method
[19] = test system: Enterococcus faecium; test: Antibacterial activity against vancomycin resistant and teicoplanin sensitive Enterococcus faecium APV 00420 after 16 to 24 hrs by broth microdilution method
[20] = test system: Enterococcus faecalis; test: Antibacterial activity against vancomycin-sensitive Enterococcus faecalis APV 00623 after 16 to 24 hrs by broth microdilution method
[21] = test system: Staphylococcus aureus; test: Antibacterial activity against Staphylococcus aureus
[22] = test system: Escherichia coli; test: Antibacterial activity against Escherichia coli

SMILES	MIC [1] [µg/mL]	MIC [2] [µg/mL]	MIC [3] [µg/mL]	MIC [5] [µg/mL]	MIC [6] [µg/mL]	MIC [7] [µg/mL]	MIC [8] [µg/mL]	MIC [9] [µg/mL]	MIC [10] [µg/mL]	MIC [11] [µg/mL]	MIC [13] [µg/mL]	MIC [14] [µg/mL]	MIC [15] [µg/mL]	MIC [19] [µg/mL]	MIC [20] [µg/mL]	also measured
O=C(O)c1cn(C2CC2)c2cc(N3CCNCC3)c(F)cc2c1=O [CIPROFLOXACIN]	0.125 (≈ 0.377 µM)	0.015 (≈ 0.0453 µM)	64 (≈ 193 µM)	128 (≈ 386 µM)	4 (≈ 12.1 µM)	64 (≈ 193 µM)	2 (≈ 6.04 µM)	16 (≈ 48.3 µM)	32 (≈ 96.6 µM)	1 (≈ 3.02 µM)	> 128	128 (≈ 386 µM)	0.008 (≈ 0.0241 µM)	> 32	2 (≈ 6.04 µM)	MIC [4]: 0.25 µg/mL; MIC [12]: 4 to 64 µg/mL (≈ 12.1 to 193 µM); MIC [16]: ≤ 0.06 µg/mL; MIC [17]: 0.25 to 0.5 µg/mL (≈ 0.754 to 1.51 µM); MIC [18]: > 4 µg/mL
O=c1ccc2ncc(=O)n3c2n1C[C@H]3CN1CCC(NCc2cc3c(cn2)OCCC3)CC1 [GEPOTIDACIN]	–	–	–	–	–	–	–	–	–	–	–	–	–	–	–	MIC90 [21]: 0.5 µg/mL (≈ 1.11 µM); MIC90 [22]: 4 µg/mL (≈ 8.92 µM)
CN[C@H](CC(C)C)C(=O)N[C@H]1C(=O)N[C@@H](CC(N)=O)C(=O)N[C@H]2C(=O)N[C@H]3C(=O)N[C@H](C(=O)N[C@H](C(=O)O)c4cc(O)cc(O)c4-c4cc3ccc4O)[C@H](O)c3ccc(c(Cl)c3)Oc3cc2cc(c3O[C@@H]2O[C@H](CO)[C@@H](O)[C@H](O)[C@H]2O[C@H]2C[C@](C)(N)[C@H](O)[C@H](C)O2)Oc2ccc(cc2Cl)[C@H]1O [VANCOMYCIN]	> 8	> 8	> 128	> 128	> 128	1 (≈ 0.69 µM)	2 (≈ 1.38 µM)	> 128	> 128	4 (≈ 2.76 µM)	> 128	> 128	> 8	> 8	2 (≈ 1.38 µM)	–
